Series [1] is described as follows: Chemical stability in aqueous solution (half-life). It counts as physicochemical. The protocol: Chemical stability in aqueous solution at pH 7.4 and pH 2.0 is reported as half-life (t1/2). These values are determined by interpolation from a graph of concentration of test substance remaining in solution after storage under selected conditions for various periods of time.

The test system of the next series is E. coli. Nature of the series: Protective dose (PD50) in infected animals. Details: unit not given here. As to conditions: PO. It counts as in vivo, mice. An excerpt: (§1) The PD₅₀ values are protective doses, or the dose of test compound which secures survival of 50% of the animals of a test group, usually mice, during a designated period of time after being infected with an inoculum of infectious organism which will result in death of all inoculated untreated animals during that test period.

The nature of series [2]: Blood concentration parameters after administration to mice. It counts as in vivo. The following applies: for U.R.: listed after the PO/50 lines, abbreviation not defined; for AUC / half-life / Cmax: mouse, mice; for half-life: blood half-life. An excerpt: […] "Cmax" is the maximum concentration achieved, "t1/2" is the half-life or time for half of the absorbed material to disappear from the blood stream.

For a further series, the system named is K. pneu. A9664. In words: M.I.C., tube dilution method in Nutrient Broth. It counts as cell-based. The following applies: unit assumed. As to the method:
(§2) The following procedures illustrate the application of the process of this invention to the preparation of a variety of compounds of Formula V. In many instances, data illustrating the biological activity of the substances as antibiotics are presented. […] It is determined by interpolation from a graph of concentration versus number of cells following exposure of the organism to the test compound under growth conditions. Another parameter such as optical density which is proportional to the cell count may be used. In some instances MIC₉₀ values are also given. The latter refers to 90% growth inhibition.

In the next series the test system is P. vul. A21559. Nature of the series: M.I.C., tube dilution method in Nutrient Broth. The following applies: unit assumed. It counts as cell-based. The protocol:
as §2

For another series, the system named is Ent. clo. A9659. In words: M.I.C., tube dilution method in Nutrient Broth. It counts as cell-based. As to conditions: unit assumed. As to the method:
as §2

For a further series, the system named is Ent. clo. A9656. Nature of the series: M.I.C., tube dilution method in Nutrient Broth. Type of series: cell-based. The following applies: unit assumed. The protocol:
as §2

Another series deals with Str. pyo. A9604. In words: M.I.C., tube dilution method in Nutrient Broth. Type of series: cell-based. As to conditions: unit assumed. As to the method: as §2
The test system of a further series is E. coli A20341. In words: M.I.C., tube dilution method in Nutrient Broth. Type of series: cell-based. As to conditions: unit assumed. As to the method:
as §2

The test system of the next series is P. rett. A22424. Nature of the series: M.I.C., tube dilution method in Nutrient Broth. Type of series: cell-based. As to conditions: unit assumed. As to the method:
as §2

For the next series, the system named is P. mir. A9900. Nature of the series: M.I.C., tube dilution method in Nutrient Broth. As to conditions: unit assumed. It counts as cell-based. The protocol:
as §2

The subject of another series is Staph aur. MR. In words: M.I.C., tube dilution method in Nutrient Broth. It counts as cell-based. The following applies: unit assumed. As to the method: as §2
In another series the test system is Ps. aeru. A9843. Nature of the series: M.I.C., tube dilution method in Nutrient Broth. It counts as cell-based. As to conditions: unit assumed. The protocol: as §2
A further series relates to Ps. aeru. CarbR. In words: M.I.C., tube dilution method in Nutrient Broth. Type of series: cell-based. The following applies: unit assumed. As to the method:
as §2

The next series relates to Str. pneu. A9585. In words: M.I.C., tube dilution method in Nutrient Broth. It counts as cell-based. As to conditions: unit assumed. As to the method: as §2
Another series relates to Ser. mars. A20019. Nature of the series: M.I.C., tube dilution method in Nutrient Broth. It counts as cell-based. The following applies: unit assumed. As to the method:
as §2

The next series deals with P. morg. A15153. In words: M.I.C., tube dilution method in Nutrient Broth. It counts as cell-based. As to conditions: unit assumed. As to the method: as §2
The next series relates to Staph aur. Pen+. Nature of the series: M.I.C., tube dilution method in Nutrient Broth. As to conditions: unit assumed. Type of series: cell-based. The protocol:
as §2

In another series the test system is Staph. aur. A9537. In words: M.I.C., tube dilution method in Nutrient Broth. As to conditions: unit assumed. It counts as cell-based. As to the method: as §2
The next series has as its system Staph. serum. In words: M.I.C., tube dilution method in Nutrient Broth. It counts as cell-based. The following applies: unit assumed. As to the method:
as §2

The subject of the next series is Str. faec. A20688. In words: M.I.C., tube dilution method in Nutrient Broth. It counts as cell-based. The following applies: unit assumed. The protocol: as §2
In the next series the test system is E. coli A15119. Nature of the series: M.I.C., tube dilution method in Nutrient Broth. It counts as cell-based. The following applies: unit assumed. The protocol:
as §2

A further series deals with K. pneu. A20468. Nature of the series: M.I.C., tube dilution method in Nutrient Broth. Type of series: cell-based. The following applies: unit assumed. As to the method:
as §2

The next series relates to S. pneu. In words: Protective dose (PD50) in infected animals. Details: unit not given beside the values. As to conditions: PO. Type of series: in vivo, mice.
From the text: as §1

[3] abbreviates: citric acid buffer, pH 2, 37°C, pH 2.0 citric acid buffer, by hplc, read-out: t1/2, pH 2.
Setting [4] is: phosphate buffer, pH 7.4, 37°C, pH 7.4 phosphate buffer, by uv, read-out: t1/2, pH 7.4 (converted).

Like-named read-outs stand apart in the source and are kept apart here.

What is called AUC is the area under the concentration-time curve, a measure of exposure.

In the case of `C[C@@H](N)[C@H]1C(=O)N2C(C(=O)O)=C(SCc3cn(C)nn3)[C@H](C)[C@H]12` [Procedure 15], the half-life in series [1] (setting [3]) was 2.4 h; in [1] (setting [4]), 3.1 h; in series [2] (in vivo, PO, 50 mg/kg), 0.4 h. In the series on E. coli, the “PD50, E. coli” value stood at 21.80. Also, the U.R. in series [2] came out at 11. Further, the AUC in series [2] (in vivo, PO, 50 mg/kg) came to 25000 ng·h/mL. Also, the Cmax in [2] (in vivo, PO, 50 mg/kg, read-out: Cmax, PO/50) stood at 29000 ng/mL. The compound further showed a M.I.C. K. pneu. A9664 in the series on K. pneu. A9664 of 0.13 µg/mL. The compound also yielded a M.I.C. P. vul. A21559 in the series on P. vul. A21559 of 0.06 µg/mL. In the series on Ent. clo. A9659, this compound displayed a M.I.C. Ent. clo. A9659 of 0.13 µg/mL. This compound registered a M.I.C. Ent. clo. A9656 with Ent. clo. A9656 of 0.03 µg/mL. In the series on Str. pyo. A9604, this compound registered a M.I.C. Str. pyo. A9604 of 1 µg/mL. In the series on E. coli A20341, this compound displayed a M.I.C. E. coli A20341 of 0.03 µg/mL. This compound registered a M.I.C. P. rett. A22424 in the series with P. rett. A22424 of 4 µg/mL. The compound further yielded a M.I.C. P. mir. A9900 in the series with P. mir. A9900 of 0.03 µg/mL. Besides, the M.I.C. Staph aur. MR in the series on Staph aur. MR amounted to 32 µg/mL. Also, the M.I.C. Ps. aeru. A9843 in the series with Ps. aeru. A9843 turned out to be 2 µg/mL. Also, the M.I.C. Ps. aeru. CarbR with Ps. aeru. CarbR amounted to 16 µg/mL. The compound further yielded a M.I.C. Str. pneu. A9585 in the series on Str. pneu. A9585 of 1 µg/mL. In addition, the M.I.C. Ser. mars. A20019 in the series with Ser. mars. A20019 was found to be 0.13 µg/mL. The compound also displayed a M.I.C. P. morg. A15153 in the series on P. morg. A15153 of 0.13 µg/mL. The compound also gave a M.I.C. Staph aur. Pen+ with Staph aur. Pen+ of 4 µg/mL. Besides, the M.I.C. Staph. aur. A9537 in the series with Staph. aur. A9537 came to 4 µg/mL. The M.I.C. Staph. serum with Staph. serum was found to be 4 µg/mL. The compound further registered a M.I.C. Str. faec. A20688 in the series with Str. faec. A20688 of 125 µg/mL. For the same compound, the M.I.C. E. coli A15119 with E. coli A15119 came out at 0.03 µg/mL. The M.I.C. K. pneu. A20468 in the series on K. pneu. A20468 was 0.13 µg/mL.

Take `C[C@@H](N)[C@H]1C(=O)N2C(C(=O)O)=C(SCc3ccccn3)[C@H](C)[C@H]12` [Procedure 18, (5S,6R) 6-(1′R-Aminoethyl)-4R-methyl-3-[(pyridin-2-yl)methylthio]-7-oxo-1-azabicyclo[3.2.0]hept-2-ene-2-carboxylic Acid]: the half-life was 2 h in series [1] (setting [3]); 2.8 h in series [1] (setting [4]); 0.25 h in [2] (20 mg/kg, IM/20); 0.4 h in [2] (PO, 50 mg/kg). Besides, the “PD50, E. coli” value in the series with E. coli was found to be 11.20. Further, the U.R. in [2] is given as 17. Further, the AUC in series [2] (blood, 20 mg/kg, IM/20) was 11000 ng·h/mL; in series [2] (blood, PO, 50 mg/kg), 32000 ng·h/mL. The Cmax in series [2] (blood, 20 mg/kg, IM/20, read-out: Cmax, IM/20) is 24000 ng/mL; in [2] (blood, PO, 50 mg/kg, read-out: Cmax, PO/50), 33000 ng/mL. The “PD50, S. pneu” value in the series on S. pneu stood at 16.5.

`CC[C@H]1C(SCc2cn(C)nn2)=C(C(=O)O)N2C(=O)[C@H]([C@H](C)N)[C@@H]12` [Procedure 52, (5S,6R) 6-(1′S-Aminoethyl)-4R-ethyl-3-[(1-metyl-1,2,3-triazol-4-yl)-methylthio]-7-oxo-1-azabicyclo[3.2.0]hept-2-ene-2-carboxylate] displayed a M.I.C. K. pneu. A9664 with K. pneu. A9664 of 1 µg/mL. In the series with P. vul. A21559, this compound registered a M.I.C. P. vul. A21559 of 0.25 µg/mL. The same compound returned a M.I.C. Ent. clo. A9659 in the series on Ent. clo. A9659 of 2 µg/mL. The M.I.C. Ent. clo. A9656 in the series with Ent. clo. A9656 is 1 µg/mL. The compound further returned a M.I.C. Str. pyo. A9604 with Str. pyo. A9604 of 16 µg/mL. For the same compound, the M.I.C. E. coli A20341 in the series on E. coli A20341 is 0.5 µg/mL. Further, the M.I.C. P. rett. A22424 with P. rett. A22424 worked out at 4 µg/mL. Further, in the series on P. mir. A9900, the M.I.C. P. mir. A9900 was determined as 0.25 µg/mL. In addition, the M.I.C. Staph aur. MR in the series with Staph aur. MR is 125 µg/mL. This compound also showed a M.I.C. Ps. aeru. A9843 in the series on Ps. aeru. A9843 of 32 µg/mL. Further, the M.I.C. Str. pneu. A9585 in the series with Str. pneu. A9585 came to 8 µg/mL. The compound further registered a M.I.C. Ser. mars. A20019 in the series on Ser. mars. A20019 of 1 µg/mL. Besides, in the series with P. morg. A15153, the M.I.C. P. morg. A15153 was 0.5 µg/mL. The compound also came in with a M.I.C. Staph aur. Pen+ in the series on Staph aur. Pen+ of 125 µg/mL. In the series on Staph. aur. A9537, this compound yielded a M.I.C. Staph. aur. A9537 of 32 µg/mL. The compound further returned a M.I.C. Staph. serum in the series on Staph. serum of 63 µg/mL. In the series on Str. faec. A20688, this compound came in with a M.I.C. Str. faec. A20688 of 125 µg/mL. In the series with E. coli A15119, the M.I.C. E. coli A15119 is 0.5 µg/mL. This compound also returned a M.I.C. K. pneu. A20468 with K. pneu. A20468 of 2 µg/mL.

Values taken from EP0372582A2, “6-Aminoalkyl carbapenems” (Bristol-Myers Squibb Company, priority 1988, dated 1990).
